Reference: patent publication US7999069B2, “EphB receptor-binding peptides” (Sanford-Burnham Medical Research Institute, priority 2005, dated 2011)
No end group written: not given here.

How the values were obtained:
EphB3 = target: T1, EphB3 (Homo sapiens, UniProt P54753); assay: Phage clone binding to immobilized EphB3 ectodomain Fc (phage ELISA); details: phage clone displaying the peptide
T1 construct: Histidine-tagged EphB ectodomain Fc fusion proteins were incubated overnight
T1 sequence (P54753 34-559 limits assumed): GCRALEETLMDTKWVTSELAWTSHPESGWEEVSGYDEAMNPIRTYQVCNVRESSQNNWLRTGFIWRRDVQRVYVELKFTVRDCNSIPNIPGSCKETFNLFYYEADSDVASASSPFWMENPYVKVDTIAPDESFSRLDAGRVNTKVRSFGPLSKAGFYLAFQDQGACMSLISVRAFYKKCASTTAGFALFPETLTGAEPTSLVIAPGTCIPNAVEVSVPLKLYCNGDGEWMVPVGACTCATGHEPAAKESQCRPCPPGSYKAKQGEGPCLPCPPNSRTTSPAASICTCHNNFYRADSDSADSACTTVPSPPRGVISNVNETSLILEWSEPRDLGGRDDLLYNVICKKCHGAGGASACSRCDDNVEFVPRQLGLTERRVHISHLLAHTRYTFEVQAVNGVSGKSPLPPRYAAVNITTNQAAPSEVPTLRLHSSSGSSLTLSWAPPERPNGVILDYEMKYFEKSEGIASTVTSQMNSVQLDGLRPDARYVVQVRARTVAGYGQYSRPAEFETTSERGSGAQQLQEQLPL
Description: To identify EphB receptor-binding peptides, an M13 phage library (R&D Systems, Minneapolis, Minn.) displaying random 12 amino acid-long peptides was panned on the ectodomains of EphB1, EphB2, or EphB4 fused to human Fc and immobilized on nickel-coated wells through a carboxy-terminal hexahistidine tag (FIG. 1). Phage binding to Ni-NTA wells coated with 1 μg/ml Eph receptor Fe fusion proteins was quantified using an anti-phage antibody conjugated to horseradish peroxidase (M13 phage detection kit, Amersham Biosciences) with 2,2-azino-bis(3-ethylbenzothiazoline-6-sulfonic acid) as a substrate. The background that was subtracted from the measurements was determined without EphB4 Fc. Histidine-tagged EphB ectodomain Fc fusion proteins were incubated overnight at 4° C. in nickel-nitrilotriacetic acid (Ni-NTA)-coated ELISA wells at concentrations of 10 μg/ml in Tris-buffered saline (TBS) (150 mM NaCl, 50 mM Tris-HCl, pH 7.5), except for EphB2 and EphB4 rounds 3.2 and 4, which were with 1 μg/ml. […] Phage recovered after the first round of panning (1*) were not quantified to ensure that rare clones would be recovered.
The binding selectivity of the phage clones for the different mammalian EphB receptors was also determined (Table 1). […]

EphB6 = target: T2, EphB6 (Homo sapiens, UniProt O15197); assay: Phage clone binding to immobilized EphB6 ectodomain Fc (phage ELISA); details: phage clone displaying the peptide
T2 construct: Histidine-tagged EphB ectodomain Fc fusion proteins were incubated overnight
T2 sequence (O15197 32-594 limits assumed): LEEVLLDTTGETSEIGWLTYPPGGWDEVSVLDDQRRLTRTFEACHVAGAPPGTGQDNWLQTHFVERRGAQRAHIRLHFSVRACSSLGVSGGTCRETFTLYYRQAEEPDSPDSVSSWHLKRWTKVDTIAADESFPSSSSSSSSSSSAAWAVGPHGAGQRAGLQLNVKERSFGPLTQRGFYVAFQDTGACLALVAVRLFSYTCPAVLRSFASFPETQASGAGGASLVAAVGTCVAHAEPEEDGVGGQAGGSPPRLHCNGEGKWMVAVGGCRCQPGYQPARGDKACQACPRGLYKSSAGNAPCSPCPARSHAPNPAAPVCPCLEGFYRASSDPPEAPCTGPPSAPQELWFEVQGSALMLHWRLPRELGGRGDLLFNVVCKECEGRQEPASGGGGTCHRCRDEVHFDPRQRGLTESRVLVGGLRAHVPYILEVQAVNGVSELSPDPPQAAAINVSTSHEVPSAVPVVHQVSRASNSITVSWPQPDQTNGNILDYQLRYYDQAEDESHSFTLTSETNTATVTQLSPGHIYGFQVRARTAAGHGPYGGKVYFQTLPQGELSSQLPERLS
Description: Phage binding to Ni-NTA wells coated with 1 μg/ml Eph receptor Fe fusion proteins was quantified using an anti-phage antibody conjugated to horseradish peroxidase (M13 phage detection kit, Amersham Biosciences) with 2,2-azino-bis(3-ethylbenzothiazoline-6-sulfonic acid) as a substrate. The background that was subtracted from the measurements was determined without EphB4 Fc. […] In round 1 of panning, 2×10^11 plaque forming units (PFUs) of the phage library in 100 μl binding buffer were incubated for 1 hour at room temperature in the EphB receptor-coated wells.

EphB Receptor Specificity (% Binding) B3 (EphB3): 1%
EphB Receptor Specificity (% Binding) B6 (EphB6): 0%
Sequence: EWLSPNLAPSVR [compound 1]
